Data from ChEMBL document CHEMBL5518176, “Identification of novel aminopyrimidine derivatives for the treatment of mutant NSCLC” (Eur J Med Chem, 2024).
Activity calls are given as the source filed them. The calls are words filed in the database; no cut-off is given here.

Assays:
BaF3 [1] = assay: Antiproliferative activity against mouse BaF3 cells harboring EGFR L858R/T790M/C797S triple mutant assessed as inhibition of cell growth incubated for 72 hrs by CellTiter-Glo luminescent assay; assay type: functional, cell-based; settings: BaF3, 72 h
A549 = assay: Antiproliferative activity against human A549 cells assessed as inhibition of cell growth incubated for 72 hrs by MTT assay; assay type: functional, cell-based; settings: A549, 72 h
BaF3 [2] = assay: Antiproliferative activity against mouse BaF3 cells harboring EGFR Del19/T790M/C797S triple mutant assessed as inhibition of cell growth incubated for 72 hrs by CellTiter-Glo luminescent assay; assay type: functional, cell-based; settings: BaF3, 72 h
NCI-H1975 [3] = assay: Antiproliferative activity against human NCI-H1975 cells harboring EGFR L858R/T790M/C797S triple mutant assessed as inhibition of cell growth incubated for 72 hrs by CellTiter-Glo luminescent assay; assay type: functional, cell-based; settings: NCI-H1975, 72 h
NCI-H1975 [4] = assay: Antiproliferative activity against human NCI-H1975 cells harboring EGFR L858R/T790M double mutant assessed as inhibition of cell growth incubated for 72 hrs by MTT assay; assay type: functional, cell-based; settings: NCI-H1975, 72 h
BaF3 [5] = assay: Antiproliferative activity against mouse BaF3 cells harboring wildtype EGFR assessed as inhibition of cell growth incubated for 72 hrs by CellTiter-Glo luminescent assay; assay type: functional, cell-based; settings: BaF3, 72 h
NCI-H1975 [6] = assay: Induction of apoptosis in human NCI-H1975 cells harboring EGFR L858R/T790M/C797S triple mutant assessed as late apoptotic cells at 0.4 uM incubated for 48 hrs by Annexin V-FITC/PI staining based flow cytometric analysis (reference value: 0.89 %); assay type: functional
NCI-H1975 [7] = assay: Induction of apoptosis in human NCI-H1975 cells harboring EGFR L858R/T790M/C797S triple mutant assessed as late apoptotic cells at 1.5 uM incubated for 48 hrs by Annexin V-FITC/PI staining based flow cytometric analysis (reference value: 0.89 %); assay type: functional
NCI-H1975 [8] = assay: Induction of apoptosis in human NCI-H1975 cells harboring EGFR L858R/T790M/C797S triple mutant assessed as necrotic cells at 0.4 uM incubated for 48 hrs by Annexin V-FITC/PI staining based flow cytometric analysis (reference value: 0.42 %); assay type: functional
NCI-H1975 [9] = assay: Induction of apoptosis in human NCI-H1975 cells harboring EGFR L858R/T790M/C797S triple mutant assessed as necrotic cells at 0.8 uM incubated for 48 hrs by Annexin V-FITC/PI staining based flow cytometric analysis (reference value: 0.42 %); assay type: functional
NCI-H1975 [10] = assay: Induction of apoptosis in human NCI-H1975 cells harboring EGFR L858R/T790M/C797S triple mutant assessed as early apoptotic cells at 0.8 uM incubated for 48 hrs by Annexin V-FITC/PI staining based flow cytometric analysis (reference value: 0.39 %); assay type: functional
NCI-H1975 [11] = assay: Induction of cell cycle arrest in human NCI-H1975 cells harboring EGFR L858R/T790M/C797S triple mutant at 0.4 to 1.5 uM incubated for 48 hrs by flow cytometric analysis; assay type: functional, cell-based; settings: dose 0.4-1.5 µM
NCI-H1975 [12] = assay: Induction of apoptosis in human NCI-H1975 cells harboring EGFR L858R/T790M/C797S triple mutant assessed as early apoptotic cells at 1.5 uM incubated for 48 hrs by Annexin V-FITC/PI staining based flow cytometric analysis (reference value: 0.39 %); assay type: functional
NCI-H1975 [13] = assay: Induction of apoptosis in human NCI-H1975 cells harboring EGFR L858R/T790M/C797S triple mutant assessed as viable cells at 1.5 uM incubated for 48 hrs by Annexin V-FITC/PI staining based flow cytometric analysis (reference value: 98.3 %); assay type: functional; settings: read-out: Activity
NCI-H1975 [14] = assay: Induction of apoptosis in human NCI-H1975 cells harboring EGFR L858R/T790M/C797S triple mutant assessed as viable cells at 0.8 uM incubated for 48 hrs by Annexin V-FITC/PI staining based flow cytometric analysis (reference value: 98.3 %); assay type: functional; settings: read-out: Activity
NCI-H1975 [15] = assay: Induction of apoptosis in human NCI-H1975 cells harboring EGFR L858R/T790M/C797S triple mutant assessed as necrotic cells at 1.5 uM incubated for 48 hrs by Annexin V-FITC/PI staining based flow cytometric analysis (reference value: 0.42 %); assay type: functional
NCI-H1975 [16] = assay: Induction of apoptosis in human NCI-H1975 cells harboring EGFR L858R/T790M/C797S triple mutant assessed as viable cells at 0.4 uM incubated for 48 hrs by Annexin V-FITC/PI staining based flow cytometric analysis (reference value: 98.3 %); assay type: functional; settings: read-out: Activity
NCI-H1975 [17] = assay: Induction of apoptosis in human NCI-H1975 cells harboring EGFR L858R/T790M/C797S triple mutant assessed as late apoptotic cells at 0.8 uM incubated for 48 hrs by Annexin V-FITC/PI staining based flow cytometric analysis (reference value: 0.89 %); assay type: functional
[18] = Antiproliferative activity against human BEAS-2B cells assessed as inhibition of cell growth; assay type: toxicity, cell-based
NCI-H1975 [19] = assay: Induction of apoptosis in human NCI-H1975 cells harboring EGFR L858R/T790M/C797S triple mutant assessed as early apoptotic cells at 0.4 uM incubated for 48 hrs by Annexin V-FITC/PI staining based flow cytometric analysis (reference value: 0.39 %); assay type: functional
NCI-H1975 [20] = assay: Antiproliferative activity against human NCI-H1975 cells harboring EGFR L858R/T790M/C797S triple mutant assessed as inhibition of cell growth incubated for 72 hrs in presence of osimertinib by CellTiter-Glo luminescent assay; assay type: functional, cell-based; settings: NCI-H1975, 72 h

IC50 (BaF3 [1]) [nM] | IC50 (A549) [nM] | IC50 (BaF3 [2]) [nM] | IC50 (NCI-H1975 [3]) [nM] | IC50 (NCI-H1975 [4]) [nM] | Compound | further results
1280 | 4020 | 1210 | 1640 | 2930 | Nc1nccc(Nc2ccc(NC(=O)C(c3ccccc3)N3Cc4ccc(-c5ccc(N6CCNCC6)cc5)cc4C3=O)cc2)n1 (configuration not stated) | –
1430 | 1780 | 720 | 1430 | 2440 | Nc1nccc(Nc2ccc(NC(=O)C(c3ccccc3)N3Cc4cc(-c5ccc(N6CCNCC6)cc5)ccc4C3=O)c(F)c2)n1 (configuration not stated) | –
1960 | > 20000 | 1960 | – | > 20000 | Nc1nccc(Nc2ccc(NC(=O)C(c3ccccc3)N3Cc4cc(-c5ccc(N6CCOCC6)cc5)ccc4C3=O)cc2)n1 (racemic) | –
1040 | 5200 | – | 2700 | 3820 | O=C(Nc1ccc(Nc2ccncc2)cc1)C(c1ccccc1)N1Cc2cc(-c3ccc(N4CCNCC4)cc3)ccc2C1=O (configuration not stated) | –
1190 | 15700 | 1190 | – | 11600 | CCN(CC)c1ccc(-c2ccc3c(c2)CN(C(C(=O)Nc2ccc(Nc4ccnc(N)n4)cc2)c2ccccc2)C3=O)cc1 (racemic) | –
420 | 5140 | 410 | 820 | 2950 | CN1CCN(c2ccc(-c3ccc4c(c3)CN([C@@H](C(=O)Nc3ccc(Nc5ccnc(N)n5)cc3)c3ccccc3)C4=O)cc2)CC1 | IC50 (BaF3 [5]): 410 nM; Activity (NCI-H1975 [6]): 1.64%; Activity (NCI-H1975 [7]): 12.15%; Activity (NCI-H1975 [8]): 0.51%; Activity (NCI-H1975 [9]): 0.69%; Activity (NCI-H1975 [10]): 1.45%; Activity (NCI-H1975 [11]): inactive; Activity (NCI-H1975 [12]): 1.83%; viability at 1.5 µM (NCI-H1975 [13]): 85.3%; viability at 0.8 µM (NCI-H1975 [14]): 86.7%; Activity (NCI-H1975 [15]): 0.73%; viability at 0.4 µM (NCI-H1975 [16]): 97.3%; Activity (NCI-H1975 [17]): 11.16%; IC50 [18]: 5120 nM; Activity (NCI-H1975 [19]): 0.59%
720 | 7180 | 750 | 1640 | 2820 | CN1CCN(c2ccc(-c3ccc4c(c3)CN([C@H](C(=O)Nc3ccc(Nc5ccnc(N)n5)cc3)c3ccccc3)C4=O)cc2)CC1 | IC50 (BaF3 [5]): 450 nM
> 10000 | > 20000 | > 10000 | > 10000 | > 20000 | Nc1cc(Nc2ccc(NC(=O)C(c3ccccc3)N3Cc4ccccc4C3=O)cc2)ncn1 (configuration not stated) | –
2550 | 5130 | 2450 | – | 9950 | O=C(Nc1ccc(Nc2ccncn2)cc1)C(c1ccccc1)N1Cc2cc(-c3ccc(N4CCNCC4)cc3)ccc2C1=O (configuration not stated) | –
> 10000 | > 20000 | > 10000 | > 10000 | > 20000 | Nc1nccc(Nc2ccc(NC(=O)C(c3ccccc3)N3Cc4ccccc4C3=O)cc2)n1 (configuration not stated) | –
480 | 4880 | – | 2650 | 3600 | COc1nccc(Nc2ccc(NC(=O)C(c3ccccc3)N3Cc4cc(-c5ccc(N6CCNCC6)cc5)ccc4C3=O)cc2)n1 (configuration not stated) | –
3960 | > 20000 | 1520 | > 10000 | > 20000 | Nc1cc(Nc2ccc(NC(=O)C(c3ccccc3)N3Cc4cc(-c5ccc(N6CCNCC6)cc5)ccc4C3=O)cc2)ncn1 (configuration not stated) | –
– | – | – | 3660 | – | O=C(Nc1nccs1)[C@@H](c1cc(F)ccc1O)N1Cc2ccc(-c3ccc(N4CCNCC4)cc3)cc2C1=O | IC50 (NCI-H1975 [20]): 1250 nM
1240 | 3960 | 860 | 2320 | 4400 | Nc1nccc(Nc2ccc(NC(=O)C(c3ccccc3)N3Cc4cc(-c5ccc(N6CCNCC6)cc5)ccc4C3=O)c(Cl)c2)n1 (configuration not stated) | –
1440 | 4200 | 860 | 1550 | 3320 | Nc1nccc(Nc2ccc(NC(=O)C(c3ccccc3)N3Cc4cc(-c5ccc(N6CCNCC6)cc5)ccc4C3=O)cc2Cl)n1 (configuration not stated) | –
970 | 530 | 690 | 1490 | 3200 | Nc1nccc(Nc2ccc(NC(=O)C(c3ccccc3)N3Cc4cc(-c5ccc(N6CCNCC6)cc5)ccc4C3=O)cc2)n1 (configuration not stated) | –
1460 | 2210 | 890 | 4160 | 3200 | Nc1nccc(Nc2cccc(NC(=O)C(c3ccccc3)N3Cc4cc(-c5ccc(N6CCNCC6)cc5)ccc4C3=O)c2)n1 (configuration not stated) | –
930 | 3970 | – | 2690 | 4750 | Cc1nccc(Nc2ccc(NC(=O)C(c3ccccc3)N3Cc4cc(-c5ccc(N6CCNCC6)cc5)ccc4C3=O)cc2)n1 (configuration not stated) | –
1420 | 4520 | 1720 | 1530 | 7800 | Nc1nccc(Nc2ccc(NC(=O)C(c3ccccc3)N3Cc4cc(-c5ccc(N6CCNCC6)cc5)ccc4C3=O)cc2F)n1 (configuration not stated) | –
690 | 12200 | 620 | 1650 | – | CN1CCN(c2ccc(-c3ccc4c(c3)CN(C(C(=O)Nc3ccc(Nc5ccnc(N)n5)cc3)c3ccccc3)C4=O)cc2)CC1 (racemic) | IC50 (BaF3 [5]): 1500 nM
2080 | > 20000 | 2580 | – | > 20000 | Nc1nccc(Nc2ccc(NC(=O)C(c3ccccc3)N3Cc4cc(-c5ccc(N6CCCCC6)cc5)ccc4C3=O)cc2)n1 (racemic) | –

Compound | IC50 (BaF3 [1]) [nM] | IC50 (A549) [nM] | IC50 (BaF3 [2]) [nM] | IC50 (NCI-H1975 [3]) [nM] | IC50 (NCI-H1975 [4]) [nM] | further results
C=CC(=O)Nc1cc(Nc2nccc(-c3cn(C)c4ccccc34)n2)c(OC)cc1N(C)CCN(C)C [OSIMERTINIB] | 1120 | […] | 750 | […] | […] | IC50 (BaF3 [5]): 9 nM
